Data set [1] deals with T1, human MT2 melatonin receptor (Homo sapiens, UniProt P49286).
T1 construct: expressed in transfected cells; host or cells: CHO (Chinese hamster ovary) cells, stably transfected
T1 sequence (P49286 1-362): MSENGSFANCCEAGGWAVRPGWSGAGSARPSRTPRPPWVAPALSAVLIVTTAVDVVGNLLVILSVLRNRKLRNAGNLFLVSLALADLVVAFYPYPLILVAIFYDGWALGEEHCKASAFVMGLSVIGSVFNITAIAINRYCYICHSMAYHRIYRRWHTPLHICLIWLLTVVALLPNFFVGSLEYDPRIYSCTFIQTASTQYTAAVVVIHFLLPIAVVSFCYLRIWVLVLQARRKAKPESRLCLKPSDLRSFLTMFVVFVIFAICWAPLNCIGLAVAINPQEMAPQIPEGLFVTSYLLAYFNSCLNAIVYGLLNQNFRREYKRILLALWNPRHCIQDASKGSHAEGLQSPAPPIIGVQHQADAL
Briefly: Radioligand binding assay at human MT2 (MDS Pharma Services), 2-[125I]iodomelatonin. The note with it: for IC50 / Ki / nH (Hill coefficient): MT2; for inhibition at 50 pM: MT2, concentration 0.05 nM; for inhibition at 0.001 µM: MT2, concentration 1 nM; for inhibition at 1 µM: MT2, concentration 1 µM. How it is done: The newly synthesized indole derivatives were evaluated for their binding affinity and intrinsic activity at human MT1 and MT2 receptors stably transfected in Chinese hamster ovary (CHO) cells using 2-[^125I]iodomelatonin as a radioligand, and the results are shown in Table 5 and Table 6.

Data set [2] has as its target T2, human MT1 melatonin receptor (Homo sapiens, UniProt P48039).
T2 construct: expressed in transfected cells; host or cells: CHO (Chinese hamster ovary) cells, stably transfected
Briefly: Radioligand binding assay at human MT1 (MDS Pharma Services), 2-[125I]iodomelatonin. As to conditions: for inhibition at 50 pM: MT1, concentration 0.05 nM; for inhibition at 0.001 µM: MT1, concentration 1 nM; for inhibition at 1 µM: MT1, concentration 1 µM.

For data set [3], the target named is T3, human MT1 receptors (Homo sapiens, UniProt P48039).
T3 construct: expressed in transfected cells; host or cells: CHO (Chinese hamster ovary) cells, stably transfected
Briefly: Binding affinity at human MT1 receptors stably transfected in CHO cells, 2-[125I]iodomelatonin. The note with it: read-out: MT1 pKi (Mean ± SD) (converted).

Data set [4] concerns the target T3, human MT1 receptors. Briefly: Intrinsic activity at human MT1 receptors stably transfected in CHO cells. In kind it is biochemical. The note with it: MT1, melatonin = 1.00.
In data set [5] the target is T4, human MT2 receptors (Homo sapiens, UniProt P49286).
T4 construct: expressed in transfected cells; host or cells: CHO (Chinese hamster ovary) cells, stably transfected
T4 sequence (P49286 1-362): T1 sequence (P49286 1-362)
Briefly: Intrinsic activity at human MT2 receptors stably transfected in CHO cells. As to conditions: MT2, melatonin = 1.00. It counts as biochemical.

Data set [6] addresses T4, human MT2 receptors. Briefly: Binding affinity at human MT2 receptors stably transfected in CHO cells, 2-[125I]iodomelatonin. The note with it: read-out: MT2 pKi (Mean ± SD) (converted).
Data set [7] can be described thus: Oxidation of 2,3-dihydroindoles in solution (NMR tube, storage in DMSO solution). In kind it is physicochemical. The source says: Despite stability in the solid phase, the obtained 2,3-dihydroindoles are sensitive to oxidation in solution. Thus, the oxidation in the NMR tube occurred both in spiro and 3H-containing indolines, but led to different types of products. […] The compounds 8i,l,g were also partially converted to aromatic indoles 9i,l,g during purification by column chromatography.
[formula] Scheme 10 Oxidative conversion of 2,3-dihydroindoles during storage in DMSO solution.

We go through twelve compounds from paper PMC9655341 (Molecules, 2022).

What is called IC50 is the point on the concentration scale where inhibition reaches its midpoint. Lower therefore signals higher potency. As usually defined, the inhibition is the change of the read-out against control, counted positive when it falls. The low end stands for a response near the control, the high end for a response far below the control.

T2 sequence (P48039 whole entry): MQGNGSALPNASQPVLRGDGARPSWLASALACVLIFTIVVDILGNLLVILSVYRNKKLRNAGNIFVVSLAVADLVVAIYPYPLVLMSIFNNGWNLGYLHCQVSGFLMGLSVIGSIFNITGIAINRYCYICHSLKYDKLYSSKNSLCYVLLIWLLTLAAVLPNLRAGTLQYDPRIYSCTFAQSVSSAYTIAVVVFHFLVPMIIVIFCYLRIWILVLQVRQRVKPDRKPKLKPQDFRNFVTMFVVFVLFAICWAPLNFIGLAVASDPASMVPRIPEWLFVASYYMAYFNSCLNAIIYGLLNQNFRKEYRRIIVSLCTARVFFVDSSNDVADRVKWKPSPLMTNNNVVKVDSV
T3 sequence (P48039 whole entry): as above

With `CCC(=O)NC1Cc2ccccc2C(c2ccccc2)C1` (stereo not drawn) [4-P-PDOT, reference compound], in data set [1], the IC50 was 0.497 nM, the Ki was found to be 0.258 nM and the “nH (Hill coefficient)” value was found to be 0.840.
As to `COc1ccc2c(c1)C(CCNC(C)=O)C(=O)N2` (stereo not drawn) [7a, N-[2-(5-methoxy-2-oxo-2,3-dihydro-1H-indol-3-yl)ethyl]acetamide], in data set [1], the IC50 is 268 nM, the Ki came out at 139 nM, the “nH (Hill coefficient)” value stood at 0.676 and the inhibition at 50 pM was determined as 4%. In data set [1], this compound displayed an inhibition at 0.001 µM of 3% and an inhibition at 1 µM of 71%. The compound further yielded an IC50 in data set [2] (MT1) of more than 1000 nM. In data set [2], this compound came in with an inhibition at 50 pM of 4%, an inhibition at 0.001 µM of 3% and an inhibition at 1 µM of 46%.
Consider `COc1ccc2[nH]c(Cl)c(CCNC(C)=O)c2c1` [7d, 2-chloromelatonin], for which, in data set [1], the IC50 was determined as 0.338 nM, the Ki is 0.176 nM, the “nH (Hill coefficient)” value came out at 1.01 and the inhibition at 50 pM was determined as 13%. In data set [1], this compound returned an inhibition at 0.001 µM of 75% and an inhibition at 1 µM of 98%. In addition, in data set [2] (MT1), the IC50 turned out to be 0.138 nM, the Ki was 0.0716 nM and the “nH (Hill coefficient)” value was 0.925. For the same compound, in data set [2], the inhibition at 50 pM is 28%, the inhibition at 0.001 µM is 86% and testing at 1 µM gave an inhibition of 100%. Also, the “MT1 receptor binding activity compared with melatonin” value in data set [2] (MT1, in words) was “more active than melatonin”.
Regarding `CC(=O)NCCC1(C)CN(C)c2ccccc21` (stereo not drawn) [8a, N-[2-(1,3-Dimethyl-2,3-dihydro-1H-indol-3-yl)ethyl]acetamide], the Ki was 776 nM in data set [3] and 427 nM in data set [6]. The “MT1 Intrinsic Activity” value in data set [4] stood at 0.47 ± 0.10. In addition, the “MT2 Intrinsic Activity” value in data set [5] is listed as 0.74 ± 0.07.
For `CC(=O)NCCC1(C)CN(Cc2ccccc2)c2ccccc21` (stereo not drawn) [8b, N-[2-(1-Benzyl-3-methyl-2,3-dihydro-1H-indol-3-yl)ethyl]acetamide], the results for the Ki in data set [3] and in data set [6] were 1740 nM and 72.4 nM, respectively. In addition, the “MT1 Intrinsic Activity” value in data set [4] is on record as 0.33 ± 0.04. Further, the “MT2 Intrinsic Activity” value in data set [5] stood at 0.45 ± 0.04.
In the same order, the values of `COc1ccc2c(c1)C(C)(CCNC(C)=O)CN2C` (stereo not drawn) [8e, N-[2-(1,3-Dimethyl-5-methoxy-2,3-dihydro-1H-indol-3-yl)ethyl]acetamide] are 58.9 nM, 195 nM, 0.94 ± 0.10 and 0.96 ± 0.07.
In the same order, the values of `COc1ccc2c(c1)C(C)(CCNC(C)=O)CN2Cc1ccccc1` (stereo not drawn) [8f, N-[2-(1-Benzyl-3-methyl-5-methoxy-2,3-dihydro-1H-indol-3-yl)ethyl]acetamide] are 112 nM, 46.8 nM, 0.63 ± 0.14 and 0.61 ± 0.03.
For `COc1ccc2c(c1)C(CCNC(C)=O)CN2Cc1ccccc1` (stereo not drawn) [8h, N-[2-(1-Benzyl-5-methoxy-2,3-dihydro-1H-indol-3-yl)ethyl]acetamide] the same measures were 5.25 nM, 2.29 nM, 1.04 ± 0.14 and 0.85 ± 0.08.
Regarding `CC(=O)NCCC1CN(C)c2c1ccc(C)c2C` (stereo not drawn) [8l, N-[2-(1,6,7-Trimethyl −2,3-dihydro-1H-indol-3-yl)ethyl]acetamide], the Ki in data set [3] is 251 nM; in data set [6] it was 166 nM. Also, the “MT1 Intrinsic Activity” value in data set [4] is on record as 0.61 ± 0.15. Besides, the “MT2 Intrinsic Activity” value in data set [5] stood at 0.83 ± 0.05.
`CC(=O)NCCC1CN(Cc2ccccc2)c2ccccc21` (stereo not drawn) [8m, N-[2-(1-Benzyl-2,3-dihydro-1H-indol-3-yl)ethyl]acetamide]: the “Stability to oxidation in solution” value in data set [7] is given as “aromatization of the indole ring occurred”.
The same measure, in the same setting: with `CC(=O)NCC1CC12CN(C)c1ccccc12` (stereo not drawn) [10a, N-{1′-Methyl-1′,2′-dihydrospiro[cyclopropan-1,3′-indol]-3-ylmethyl}acetamide] the entry was “oxidized to 2-oxindole”.
Turning to `COc1ccc2[nH]cc(CCNC(C)=O)c2c1` [Melatonin, 3-(2-(acetylamino)ethyl)-5-methoxyindole, reference compound], the “nH (Hill coefficient)” value in data set [2] (MT1) is reported as 0.774. Also, in data set [4], the “MT1 Intrinsic Activity” value was 1.00 ± 0.03.
